From the NIST ThermoML archive (doi:10.1021/je050005h)
Numbers after ± are expanded uncertainties.

Experiments:
[1] = 101 kPa, Liquid
[2] = xn = mol fraction of the nth substance listed; conditions: 101 kPa, Liquid

C1CCNC1 [pyrrolidine]
[1]
Conditions	kinematic viscosity [m2/s]	mass density [kg/m3]
293.15 K	9.54e-07 ± 4.8e-08	859.87 ± 2.8
303.15 K	8.27e-07 ± 4.2e-08	850.11 ± 2.9
313.15 K	7.43e-07 ± 3.9e-08	840.24 ± 3
323.15 K	6.41e-07 ± 3.4e-08	833.88 ± 3.1

C1CCNCC1 [piperidine]
[1]
Conditions	kinematic viscosity [m2/s]	mass density [kg/m3]
293.15 K	1.79e-06 ± 8.3e-08	863.81 ± 2.7
303.15 K	1.49e-06 ± 7e-08	854.5 ± 2.8
313.15 K	1.25e-06 ± 6e-08	845.08 ± 2.9
323.15 K	1.06e-06 ± 5.2e-08	835.56 ± 3.1

O [water] + C1CCNCC1
[2], x2 = 0
Conditions	kinematic viscosity [m2/s]	mass density [kg/m3]
293.15 K	9.9e-07 ± 4.9e-08	–
303.15 K	8.1e-07 ± 4.1e-08	–
313.15 K	6.66e-07 ± 3.5e-08	–
323.15 K	5.61e-07 ± 3.1e-08	988.02 ± 1.1

C1CCNC1 [pyrrolidine] + O
[2]
Conditions	kinematic viscosity, 293.15 K [m2/s]	kinematic viscosity, 303.15 K [m2/s]	kinematic viscosity, 313.15 K [m2/s]	kinematic viscosity, 323.15 K [m2/s]	mass density, 293.15 K [kg/m3]	mass density, 303.15 K [kg/m3]	mass density, 313.15 K [kg/m3]	mass density, 323.15 K [kg/m3]
x1 = 0.0057	–	–	–	–	997.13 ± 1	994.41 ± 1.1	990.83 ± 1.1	986.46 ± 1.2
x1 = 0.0101	–	–	–	–	996.33 ± 1.1	993.49 ± 1.1	989.78 ± 1.1	985.31 ± 1.2
x1 = 0.0221	1.44e-06 ± 6.8e-08	1.12e-06 ± 5.5e-08	8.8e-07 ± 4.4e-08	7.63e-07 ± 3.9e-08	994.47 ± 1.1	991.12 ± 1.1	986.92 ± 1.2	982 ± 1.2
x1 = 0.0678	2.47e-06 ± 1.1e-07	1.76e-06 ± 8.2e-08	1.34e-06 ± 6.4e-08	1.06e-06 ± 5.2e-08	989.46 ± 1.1	983.41 ± 1.2	976.91 ± 1.3	970.03 ± 1.4
x1 = 0.1158	3.52e-06 ± 1.6e-07	2.42e-06 ± 1.1e-07	1.77e-06 ± 8.2e-08	1.36e-06 ± 6.5e-08	980.95 ± 1.2	973.19 ± 1.3	965.26 ± 1.4	957.15 ± 1.5
x1 = 0.2076	4.53e-06 ± 2e-07	3.15e-06 ± 1.4e-07	2.27e-06 ± 1e-07	1.73e-06 ± 8.1e-08	962.31 ± 1.5	953.57 ± 1.6	944.65 ± 1.7	935.51 ± 1.8
x1 = 0.3039	4.78e-06 ± 2.1e-07	3.34e-06 ± 1.5e-07	2.46e-06 ± 1.1e-07	1.87e-06 ± 8.7e-08	943.39 ± 1.7	934.33 ± 1.8	925.06 ± 1.9	915.6 ± 2.1
x1 = 0.3958	4.36e-06 ± 1.9e-07	3.13e-06 ± 1.4e-07	2.31e-06 ± 1.1e-07	1.79e-06 ± 8.3e-08	928.64 ± 1.9	919.34 ± 2	909.83 ± 2.1	900.11 ± 2.3
x1 = 0.4834	3.64e-06 ± 1.6e-07	2.73e-06 ± 1.2e-07	2.08e-06 ± 9.6e-08	1.61e-06 ± 7.5e-08	917.04 ± 2	907.58 ± 2.2	897.92 ± 2.3	888.05 ± 2.4
x1 = 0.5671	2.99e-06 ± 1.3e-07	2.24e-06 ± 1e-07	1.76e-06 ± 8.2e-08	1.39e-06 ± 6.6e-08	906.1 ± 2.2	896 ± 2.3	886.2 ± 2.4	877.7 ± 2.5
x1 = 0.6858	2.13e-06 ± 9.8e-08	1.71e-06 ± 8e-08	1.37e-06 ± 6.5e-08	1.12e-06 ± 5.5e-08	893.17 ± 2.4	883.53 ± 2.5	873.7 ± 2.6	863.68 ± 2.7
x1 = 0.8675	1.31e-06 ± 6.3e-08	1.07e-06 ± 5.2e-08	9.13e-07 ± 4.6e-08	7.84e-07 ± 4e-08	872.39 ± 2.6	862.69 ± 2.7	852.81 ± 2.9	846.3 ± 2.9
x1 = 1	9.54e-07 ± 4.8e-08	8.27e-07 ± 4.2e-08	7.43e-07 ± 3.9e-08	6.41e-07 ± 3.4e-08	859.87 ± 2.8	850.11 ± 2.9	840.24 ± 3	833.88 ± 3.1
